This is an account of results in patent publication US6284789A, “Formation and composition of new optically active compounds” (The Research Foundation of State University of New York, priority 1999, dated 2001).

Data set [1] concerns 60 human tumor cell line screen. Description: NCI 60 human tumor cell line screen, in vitro antiproliferative activity (sulforhodamine B assay). Type of data set: cell-based. The following applies: for Percentage of cell lines affected at the given concentration: at the GI50 bound or range given on the same line of Table 3. The procedure: The NCI […] Screening Procedure is described in Monks et al., J. Natl. Cancer Inst., 83: […], as are the origins and processing of the cell lines. In summary, cell suspensions that are diluted according to the particular cell type and the expected target cell density (5000-40,000 cells per well based on cell growth characteristics) are added by pipet (100 μL) into 96-well microtiter plates. Inoculates are allowed a preincubation period of 24 hours at 37° C. for stabilization. Dilutions at twice the intended test concentration were added at time zero in 100 μL aliquots to the microtiter plate wells. Usually, test compounds are evaluated at five 10-fold dilutions. In routine testing, the highest well concentration is 10^-4 M, but for the standard agents the highest well concentration used depends on the agent. Incubations last for 48 hours in 5% CO2 atmosphere and 100% relative humidity. The cells are assayed by using the sulforhodamine B assay. A plate reader is used to read the optical densities, and a microcomputer processes the optical densities into the special concentration parameters.
(The SRB assay estimates cell density from bound dye.)

The next data set relates to antitumor activity. The following applies: background; cited from earlier work.
For data set [2], the system named is tubulin / microtubule assembly. The following applies: background; cited from earlier work.
Data set [3] has as its system nucleoside transport in mammalian cells. The following applies: background; cited from earlier work.
The conditions of data set [4]: background; cited from earlier work.
A further data set has as its system antiviral activity. The following applies: background; cited from earlier work.
The next data set concerns cell division. The following applies: background; cited from earlier work.
In another data set the test system is tolpoisomerase II. The following applies: increased single and double strand breaks in DNA, background; cited from earlier work.
In data set [5] the test system is leukemias and solid tumors. The following applies: background; cited from earlier work.
The test system of data set [6] is standard panel of 12 human tumor cell lines. Description: Hollow fiber assay, preliminary in vivo testing. More on the design: species or system human tumor cell lines in mice. The following applies: i.p. injection once daily, 4 doses, 2 dose levels. The procedure:
Preliminary in vivo testing was conducted by the hollow fiber assay on the oxabicyclooctane and the dioxatricyclodecanes identified as sufficiently active in the large scale in vitro cell screens. Each compound is tested against a standard panel of 12 human tumor cell lines, including NCI-H23, […], MDA-MB-231, MDA-MB-435, SW-620, COLO 205, LOX IMVI, UACC-62, OVCAR-3, OVCAR-5, U251, and SF-295. The cell lines are cultivated in RPMI-1640 containing 10% FBS and 2 mM glutamine. On the day preceding hollow fiber preparation, the cells are given a supplementation of fresh medium to maintain log phase growth. […] On the day of implantation, samples of each tumor cell line is quantitated for viable cell mass by a stable endpoint MTT assay so that the time 0 cell mass is known. Thus, the cytostatic and cytocidal capacities of the test compound can be assessed. […] Each agent is assessed by intraperitoneal injection at 2 dose levels with 3 mice/dose/experiment. […] The optical density of each sample is determined spectropphotomnetrically at 540 nm and the mean of each treatment group is calculated. The percent net cell growth in each treatment group is calculated and compared to the percent net cell growth in the vehicle treated controls. Each compound is assessed in a total of 4 experiments (3 cell lines/experiment×4 experiments=12 cell lines). […]

Like-named read-outs stand apart in the source and are kept apart here.

As for “7-acetoxy-6-methoxytetralin-1-one [compound 87]”, the “Percentage of cell lines affected at the given concentration” value (“Percentage of cell lines affected” for short) in [1] is 93%.

On to `COc1cc([C@@H]2c3cc4c(cc3[C@H](O)[C@H]3COC(=O)[C@@H]23)OCO4)cc(OC)c1OC` (stereo in doubt) [picropodophyllotoxin], for which the “Antitumor / biological activity” value with antitumor activity is “biologically inactive”.

In the case of `COc1cc([C@H]2c3cc(O)c(OC)cc3C[C@H]3C(=O)OC[C@H]23)ccc1O` [ACON, α-Conidendrin], in the data set with antitumor activity, the “Antitumor / biological activity” value was “biologically inactive”.

For the compound `COc1cc([C@H]2c3cc(O)c(OC)cc3C[C@@H]3C(=O)OC[C@H]23)ccc1O` [BCON, β-conidendrin], the “Antitumor / biological activity” value in the data set with antitumor activity was “biologically inactive”.

Consider `COc1cc([C@]23OC[C@H](Cc4cc5c(cc42)OCO5)[C@@H]3CO)cc(OC)c1OC` [No. 2], for which the “Percentage of cell lines with the GI50 range” value in data set [1] (GI50 ranging from less than 10^-8 to 10^-5 molar) is 26%. In addition, the GI50 in data set [1] (observed for 26% of cell lines, read-out: GI50 range observed) lay within 0.01 to 10 µM.

`COc1ccc([C@]23OC[C@H](Cc4cc(OC)c(OC)cc42)[C@@H]3CO)cc1OC` [No. 5]: the GI50 in [1] (60 human tumor cell lines, 48 h, for the percentage of cell lines given beside it, read-out: GI50 (growth inhibition, 50%), GL50 [sic] in the source) was more than 100 µM. Also, the “Percentage of cell lines affected” value in data set [1] is 96%.

In the case of `COc1ccc([C@]23OC[C@H](Cc4cc(OC)c(OC)cc42)[C@@H]3COC(C)=O)cc1OC` [No. 6], the “Percentage of cell lines affected” value in [1] came out at 10%.

`COc1cc([C@@H]2c3cc4c(cc3[C@H](O)[C@H]3COC(=O)[C@H]23)OCO4)cc(OC)c1OC` [PT, podophyllotoxin]: the “Inhibition of microtubule assembly” value in data set [2] is reported as “inhibiting the assembly of tubulin into microtubules”. The “Inhibition of nucleoside transport” value in data set [3] is “inhibit nucleoside transport in mammalian cells”. For the same compound, the “Antitumor / biological activity” value in the data set with antitumor activity is “has antiviral and antitumor activity”. Further, the “Toxicity” value in data set [4] is on record as “highly toxic”. Also, in the data set on antiviral activity, the “Antiviral activity” value was “has antiviral and antitumor activity”. In addition, the “Arrest of cell division” value with cell division was “arrest of cell division at the mitotic stage of the cell cycle”.

On to `COc1cc([C@@H]2c3cc4c(cc3[C@@H](O[C@@H]3O[C@@H]5CO[C@@H](C)O[C@H]5[C@H](O)[C@H]3O)[C@H]3COC(=O)[C@H]23)OCO4)cc(OC)c1O` [etoposide], for which the “Inhibition of microtubule assembly” value in [2] is “not inhibitors of microtubule assembly”. In addition, the “Interaction and inhibition of topoisomerase II” value in the data set on tolpoisomerase II was “interaction and inhibition of the enzyme tolpoisomerase II”. For the same compound, the “Effectiveness in the treatment of leukemias and solid tumors” value in data set [5] is “effective in the treatment of a variety of leukemias and solid tumors”.

Consider `COc1cc([C@]23OC[C@H](Cc4cc5c(cc42)OCO5)[C@@H]3CO)cc(OC)c1OC` [oxabicyclooctane], for which the “Intraperitoneal score, hollow fiber assay” value in data set [6] (i.p. fiber implants) is 14. The “Subcutaneous score, hollow fiber assay” value in data set [6] (s.c. fiber implants) is 2.

As to `COc1cc([C@@H]2c3cc4c(cc3[C@@H](O[C@@H]3O[C@@H]5CO[C@@H](c6cccs6)O[C@H]5[C@H](O)[C@H]3O)[C@H]3COC(=O)[C@H]23)OCO4)cc(OC)c1O` [teniposide], the “Inhibition of microtubule assembly” value in [2] is on record as “not inhibitors of microtubule assembly”. In the data set with tolpoisomerase II, the “Interaction and inhibition of topoisomerase II” value is “interaction and inhibition of the enzyme tolpoisomerase II”. In addition, in data set [5], the “Effectiveness in the treatment of leukemias and solid tumors” value is “effective in the treatment of a variety of leukemias and solid tumors”.

By GI50 is commonly meant the concentration that inhibits growth by half.
